Entries after “also recorded” stand apart in the source; their conditions may differ.
Experiments:
[1] = cited from earlier work
[2] = tested on: cAMP levels in MCF-7 cells; test: cAMP radioimmunoassay; format: cell-based; details: 5 minutes; for cAMP accumulation / production: exendin-4 5 nM, GLP-1 5 nM, exendin (9-39) 100 nM, 2′5′-dideoxy adenosine 30 μM (60 minutes preincubation)
Experimental: cAMP measurements: For cAMP measurement, a radioimmunoassay was carried out as follows: cells and 100 μl media were snap frozen in liquid nitrogen, thawed and diluted in buffer acetate. […] Bound cAMP was precipitated and counted in a γ-counter, and concentration determined using a standard curve and positive controls.

[3] = in vivo; cited from earlier work
MCF-7 cells [4] = details: human, 72 h, 50 nM
Experimental: Doxorubicin is a commonly used chemotherapy against breast cancer.
Media and treatments were changed once after 48 hrs. After 72 hrs of incubation at 37° C., 5% CO2, the cells were cultured for four hours with 10% MIT reagent (5 mg/ml; Sigma-Aldrich). The medium was aspirated, and the cells were dissolved by dimethyl sulfoxide (DMSO). Absorbance of the formazan product was measured by an enzyme-linked immunosorbent assay reader.

MCF-7 cells [5] = test: cells; format: cell-based; details: Homo sapiens, MCF7, read-out: inhibition of cell viability
Source text: Human embryonic kidney HEK-293 and primary liver cells were used as controls.
Medium was replaced once after 48 hrs.

[6] = tested on: CREB, p38, ERK1/2, AKT, AMPK in MCF-7 cells; test: Western blot of signaling pathways (CREB, p38, ERK1/2, AKT, AMPK, ACC); format: cell-based; details: for AMPK and ACC phosphorylation (AMP kinase activity): comparable to the AMPK activator AICAR
Experimental: 50 μg protein extracts were loaded on 10% polyacrylamide gels, separated electrophoretically and blotted from the gel onto nitrocellulose membrane (Schleicher & Schuell Bioscience GmbH, Dassel, Del.). The membranes were then immunoblotted with the indicated antibodies. Band intensities were quantified using ImageJ software. Colony assays: 200 cells/well were plated on 12-well plate. […] Medium was replaced twice a week and at day 14, the cells were stained using crystal violet. Quantification of the results was performed using ImageJ.

| Compound | cAMP accumulation / production [2] | crossing of the blood-brain barrier [3] | p38 MAPK activation / phosphorylation [6] | CREB phosphorylation ([6]; 15 minutes) | AMPK and ACC phosphorylation (AMP kinase activity) [6] | other results |
| --- | --- | --- | --- | --- | --- | --- |
| N[C@@H](CC(=O)N1CCn2c(nnc2C(F)(F)F)C1)Cc1cc(F)c(F)cc1F [Sitagliptin, (2R)-4-oxo-4-[3-(trifluoromethyl)-5,6-dihydro[1,2,4]triazolo[4,3-a]pyrazin-7(8H)-yl]-1-(2,4,5-trifluorophenyl)butan-2-amine] |  |  |  |  |  | eliminated without being metabolized ([1]; human subjects, via the kidney): 74%; half life ([1]; in vivo): 8 to 12 h |
| C[C@H]1O[C@@H](n2cnc3c(N)ncnc32)C[C@@H]1O [ddA, 2′5′ dideoxy-adenosine] | inhibited |  |  |  |  |  |
| COc1cccc2c1C(=O)c1c(O)c3c(c(O)c1C2=O)C[C@@](O)(C(=O)CO)C[C@@H]3O[C@H]1C[C@H](N)[C@H](O)[C@H](C)O1 [doxorubicin] |  | does not cross the blood-brain barrier |  |  |  | reduction of viability (MCF-7 cells [4]): 20% |
| C=C[C@@]1(C)CC(=O)[C@]2(O)[C@@]3(C)[C@@H](O)CCC(C)(C)[C@@H]3[C@H](O)[C@H](OC(C)=O)[C@@]2(C)O1 [forskolin] |  |  |  |  |  | cytotoxicity at 1 µM (MCF-7 cells [5]): 60%; elevation of cAMP levels ([2]; forskolin 1 μM): 6 fold |
| Glucagon-like peptide 1 [GLP-1] | elevated; also recorded: similar | able to cross the blood-brain barrier | induced; also recorded: activated | induced; also recorded: CREB phosphorylation | phosphorylated | ERK1/2 and AKT pathways ([6]; 15 minutes): Neither GLP-1 nor exendin-4 affected; also recorded: neither ERK1/2 nor AKT were affected |
| exendin(9-39) | increased cAMP accumulation similarly to exendin-4 and GLP-1 |  | enhanced | enhanced | phosphorylated |  |

Reference: patent publication US20110046071A1 (TEL HASHOMER MEDICAL RESEARCH INFRASTRUCTURE AND SERVICES …, priority 2008, published 2011)
